Values after ≈ are worked out from the molar mass of the structure shown. Where two headings read alike, the source gives them in different places.
Experiment: Equilibrium solubility of crystal forms by UV-Vis spectrophotometry (279 nm)
Format: physicochemical
Excerpt: The specific operation was as follows: take samples of five new and original crystalline forms after reaching the dissolution equilibrium, filter them with 0.22 μm filter membrane, take appropriate amount of filtrate, according to the UV-Vis spectrophotometric method (Chinese Pharmacopoeia 2020 edition), determine the absorbance value at the wavelength of 279 nm, and substitute them into the standard curve to obtain the solubility of five new and original crystalline forms, as shown in Table 1.

[1] = pH = 7.0 aqueous solution (deionized water)

solubility (PBS, pH 6.8, aqueous buffer, thermodynamic from solid, pH = 6.8 PBS, read-out: solubility)	solubility (PBS, pH 7.4, aqueous buffer, thermodynamic from solid, pH = 7.4 PBS, read-out: solubility)	solubility (deionized water, pH 7, water, thermodynamic from solid, pH = 7.0 aqueous solution (deionized water), read-out: solubility)	solubility (hydrochloric acid solution, pH 1.2, simulated gastric fluid, thermodynamic from solid, pH = 1.2 hydrochloric acid, read-out: solubility)	solubility (pH = 1.2 hydrochloric acid)	solubility (pH = 6.8 PBS)	solubility [1]	solubility (pH = 7.4 PBS)	Compound
34.2 mg/mL (≈ 95.8 mM)	28.6 mg/mL (≈ 80 mM)	13.2 mg/mL (≈ 36.9 mM)	54 mg/mL (≈ 151 mM)	–	–	–	–	Cn1c(=O)cc(N2CCC[C@@H](N)C2)n(Cc2cc(F)ccc2C#N)c1=O [TRE-I, 2-[[6-[(3R)-3-aminopiperidin-1-yl]-3-methyl-2,4-dioxopyrimidin-1-yl]methyl]-4-fluorobenzonitrile]
–	–	–	–	45.91 mg/mL (≈ 128 mM)	40.01 mg/mL (≈ 112 mM)	15.98 mg/mL (≈ 44.7 mM)	37.32 mg/mL (≈ 104 mM)	Cn1c(=O)cc(N2CCC[C@@H](N)C2)n(Cc2cc(F)ccc2C#N)c1=O [TRE-II, 2-[[6-[(3R)-3-aminopiperidin-1-yl]-3-methyl-2,4-dioxopyrimidin-1-yl]methyl]-4-fluorobenzonitrile]
–	–	–	–	39.76 mg/mL (≈ 111 mM)	35.90 mg/mL (≈ 100 mM)	14.93 mg/mL (≈ 41.8 mM)	28.26 mg/mL (≈ 79.1 mM)	Cn1c(=O)cc(N2CCC[C@@H](N)C2)n(Cc2cc(F)ccc2C#N)c1=O [TRE-III, 2-[[6-[(3R)-3-aminopiperidin-1-yl]-3-methyl-2,4-dioxopyrimidin-1-yl]methyl]-4-fluorobenzonitrile]
–	–	–	–	73.49 mg/mL (≈ 206 mM)	35.05 mg/mL (≈ 98.1 mM)	19.56 mg/mL (≈ 54.7 mM)	35.94 mg/mL (≈ 101 mM)	Cn1c(=O)cc(N2CCC[C@@H](N)C2)n(Cc2cc(F)ccc2C#N)c1=O [TRE-IV, 2-[[6-[(3R)-3-aminopiperidin-1-yl]-3-methyl-2,4-dioxopyrimidin-1-yl]methyl]-4-fluorobenzonitrile]
–	–	–	–	76.01 mg/mL (≈ 213 mM)	36.12 mg/mL (≈ 101 mM)	12.64 mg/mL (≈ 35.4 mM)	37.51 mg/mL (≈ 105 mM)	Cn1c(=O)cc(N2CCC[C@@H](N)C2)n(Cc2cc(F)ccc2C#N)c1=O [TRE-V, 2-[[6-[(3R)-3-aminopiperidin-1-yl]-3-methyl-2,4-dioxopyrimidin-1-yl]methyl]-4-fluorobenzonitrile]
–	–	–	–	–	15.46 mg/mL (≈ 43.3 mM)	3.40 mg/mL (≈ 9.51 mM)	12.94 mg/mL (≈ 36.2 mM)	Cn1c(=O)cc(N2CCC[C@@H](N)C2)n(Cc2cc(F)ccc2C#N)c1=O [original crystal form, 2-[[6-[(3R)-3-aminopiperidin-1-yl]-3-methyl-2,4-dioxopyrimidin-1-yl]methyl]-4-fluorobenzonitrile, reference compound]

Source: patent US20250163018A1, “KEY AMINO ACID BASED ON PROTEIN-DRUG INTERACTIONS INDUCED NEW CRYSTAL FORMS OF TRELAGLIPTIN AND PREPARATION METHODS THEREOF” (GUANGDONG UNIVERSITY OF TECHNOLOGY, priority 2024, published 2025)
